Experimental data reported in patent US8221728B2, “Silanic para-aminobenzalmalonate-substituted s-triazine compounds and photoprotective compositions comprised thereof” (L'Oreal, priority 2004, dated 2012).
Where “and” joins values, the source holds several entries; their conditions need not be identical. Identical values can stand only once.

Tests used:
[1] = UV absorption spectrum in ethanol; assay type: physicochemical
Description: 2,4,6-Tris(diethyl 4′-aminobenzalmalonate)-s-triazine (1 g, […]) (Example 1 of Application EP 0,507,691) is dissolved in 5 ml of trimethylsilylethyl alcohol while sparging with nitrogen. The mixture is subsequently heated at reflux for 25 hours with 0.2 g of para-toluenesulphonic acid. After addition of 30 ml of dichloromethane, the organic phase is washed with water and then with an aqueous sodium bicarbonate solution, and dried. It is concentrated under reduced pressure. The residue obtained is purified by chromatography on a silica column (eluent: heptane/AcOEt 85/15). 0.35 g (Yield 32%) of the derivative of Example 2 is collected in the form of a pale yellow gum: • UV (ethanol) λ max=355 nm; ε max=125 250;E1%=965. […]

[2] = Photostability of a film of 5% solution in Miglyol 812 under Oriel solar simulator, HPLC quantification; assay type: physicochemical; conditions: 5% by weight in Miglyol 812, 1 mg/cm^2 film, irradiated one hour, solar simulator UV-A=14.2 mW/cm^2, UV-B=0.41 mW/cm^2
Description: The two products were dissolved at 5% by weight in the oil Miglyol 812. Approximately 10 mg of oily solution are spread over 10 cm^2 at the surface of a hollow disc of frosted glass; the amount is determined by weighing.
The films of the oily solutions are irradiated for one hour using an Oriel solar simulator (UV-A=14.2 mW/cm^2; UV-B=0.41 mW/cm^2), then extracted with 10 ml of ethanol comprising 10% of isopropanol and subjected to ultrasound for 5 min. The products are quantified by HPLC of the extracts.
HPLC conditions: column: UP5WOD-25QS, 250×4.6 mm, 5 μm, Interchrom; eluent: methanol (Comparative Example 1) and 96% of methanol+4% of water (Example 1); flow rate: 1 ml/min; volume injected: 10 μl; detection: diode array; rt (min): 5.2 (Comparative Example 1) and 13.8 (Example 1).
The degrees of loss are determined by comparison of the amounts of product present in the irradiated samples and in the non-irradiated controls prepared simultaneously and treated in the same way (means over 3 samples; S=surface/mg solution): % loss=100×(So−Sirr)/So

| Compound | E1% [1] | ε max [1] | λ max [1] [nm] | % of disappearance (% loss) [2] |
| --- | --- | --- | --- | --- |
| 2,4,6-tris(di(trimethylsilylmethyl) 4′-aminobenzalmalonate)-s-triazine [Example 1] | 987 | 118 970 | 355 | – |
| CC(C)COC(=O)C(=Cc1ccc(Nc2nc(Nc3ccc(C=C(C(=O)OCC(C)C)C(=O)OCC(C)C)cc3)nc(Nc3ccc(C=C(C(=O)OCC(C)C)C(=O)OCC(C)C)cc3)n2)cc1)C(=O)OCC(C)C [Compound (prior art), 2,4,6-Tris(diisobutyl 4′-aminobenzalmalonate)-s-triazine] | – | – | – | 11% and 10% and 9% |
| C[Si](C)(C)CCOC(=O)C(=Cc1ccc(Nc2nc(Nc3ccc(C=C(C(=O)OCC[Si](C)(C)C)C(=O)OCC[Si](C)(C)C)cc3)nc(Nc3ccc(C=C(C(=O)OCC[Si](C)(C)C)C(=O)OCC[Si](C)(C)C)cc3)n2)cc1)C(=O)OCC[Si](C)(C)C [Example 2, 2,4,6-tris(di(trimethylsilylethyl) 4′-aminobenzalmalonate)-s-triazine] | 965 | 125 250 | 355 | – |
